Measured values: patent US20100150948A1, “MATERIALS AND METHODS FOR IMPROVED IMMUNOGLYCOPROTEINS” (TRUBION PHARMACEUTICALS, INC., priority 2006, published 2010)

Legend:
[1] = tested on: CD16 (low affinity allele); experiment: Binding to soluble FcγR-MIg fusion on WIL2-S cells, flow cytometry; details: 0, 2, 5, 10, 30 or 100 μg/mL castanospermine in culture media
Procedure: The immunoglycoproteins produced according to Example 2 were assayed in vitro for binding to soluble Ig-fusion versions of Fcγ receptors, in which the extracellular domain of a receptor is fused to murine IgG2a Fc.
The soluble Fey receptor materials were generated by fusing the extracellular domain of Fcγ Receptors I (Genbank Acc. No. BC032634), IIa (Genbank Acc. No. NM_021642), IIb (Genbank Acc. No. BC031992), and III-V158 (high affinity allele) (Genbank Acc. No. X07934) and III-F158 (low affinity allele), respectively, to a murine IgG2a Fc with a Pro to Ser mutation at residue 238 (MIgG2aP238S). For both forms of Fcγ RIII (CD16), an HE4 leader was cloned onto CD16 amino acids 1-178 and then fused to MIgG2aP238S.
The assays were carried out as follows. […] The cells were then incubated with the desired FcγR-MIg fusion in the same diluent at a concentration of 1 μg/ml on ice for 45 minutes.
The complexes (WIL2-S cells/SMIP/FcγR-MIg) were then incubated with PE conjugated AffiniPure F(Ab')2 Goat Anti-Mouse IgG [Jackson Immunoresearch] (a mouse Fc-specific antibody with minimal cross reactivity with human Fc) at a 1:100 dilution. The cells were analyzed by one-color flow cytometry on a FACsCalibur using CellQuest software (Becton Dickinson).

BJAB B cells = experiment: ADCC activity, 51Cr release, PBMC effector cells; format: cell-based, human; details: for ADCC activity (% specific killing) of TRU-015 purified protein: 0, 2, 5, 10, 30 or 100 μg/mL castanospermine in culture media
Procedure: To determine the ADCC activity of purified TRU-016, labeled BJAB B cells were used as targets and human peripheral blood mononuclear cells (PBMC) as effector cells. BJAB B cells (10^7 cells) were labeled with 500 μCi/mL ^51Cr sodium chromate for 2 hours at 37° C. in IMDM/10% FBS. PBMCs were isolated from heparinized, human whole blood by fractionation over Lymphocyte Separation Media (LSM, ICN Biomedical) gradients. Reagent samples were added to RPMI media with 10% FBS and serial dilutions of each reagent were prepared. The ^51Cr labeled BJAB were added at 2×10^4 cells/well. The PBMCs were then added at 5×10^5 cells/well for a final ratio of 25:1 effectors (PBMC):targets (BJAB). Reactions were set up in quadruplicate wells of a 96 well plate. Reactions were allowed to proceed for 6 hours at 37° C. in 5% CO2 prior to harvesting and counting. CPM released was measured on a Packard TopCounNXT from 50 μl dried culture supernatant. Percent specific killing was calculated by subtracting (cpm [mean of quadruplicate samples] of sample—cpm spontaneous release)/(cpm maximal release-cpm spontaneous release) x100, and data were plotted as % specific killing versus TRU-016 concentration.

Structure (SMILES): O[C@H]1[C@H](O)[C@@H](O)CN2CC[C@H](O)[C@H]12 [castanospermine]
- CD16 binding (geometric mean fluorescence intensity) of TRU-015 purified protein produced by CHO cells cultured with the modifier [1]: dose-dependent increase
- ADCC activity (% specific killing) of TRU-016 purified protein (BJAB B cells; 0, 10, 25, 50, 100 or 200 μM castanospermine in culture media): dose-dependent increase
- ADCC (% specific killing) of TRU-016 purified protein (BJAB B cells; 200 μM DMJ, 10 μM kifenunsine or 200 μM castanospermine in culture media): improved ADCC
- ADCC activity (% specific killing) of TRU-015 purified protein (BJAB B cells; PBMC from high affinity (V/V158) CD16 donors): dose-dependent increase
- ADCC activity (% specific killing) of TRU-015 purified protein (BJAB B cells; PBMC from low affinity (F/F158) CD16 donors): dose-dependent increase
